Experiments:
[1] = The drug is tested on Clostridium sporogenes strain: ATCC15579 for biotransformation. The drug concentrations were measured before and after a 12-h incubation by liquid-chromatography-coupled mass spectrometry (LC–MS); conditions: 2 µM
[2] = bacteroides thetaiotaomicron, 12 h, 2 µM
Description: The drug is tested on Bacteroides thetaiotaomicron strain: 3731 for biotransformation. The drug concentrations were measured before and after a 12-h incubation by liquid-chromatography-coupled mass spectrometry (LC–MS)

[3] = The drug is tested on Eubacterium hallii strain: DSM3353 for biotransformation. The drug concentrations were measured before and after a 12-h incubation by liquid-chromatography-coupled mass spectrometry (LC–MS); conditions: anaerobutyricum hallii, 2 µM
[4] = bacteroides fragilis, 12 h, 2 µM
Description: The drug is tested on Bacteroides fragilis strain: NCTC 9343 for biotransformation. The drug concentrations were measured before and after a 12-h incubation by liquid-chromatography-coupled mass spectrometry (LC–MS)

[5] = bifidobacterium adolescentis, 12 h, 2 µM
Description: The drug is tested on Bifidobacterium adolescentis strain: ATCC 15703 for biotransformation. The drug concentrations were measured before and after a 12-h incubation by liquid-chromatography-coupled mass spectrometry (LC–MS)

[6] = The drug is tested on Clostridium sp. strain: fecal isolate for biotransformation. The drug concentrations were measured before and after a 12-h incubation by liquid-chromatography-coupled mass spectrometry (LC–MS); conditions: 2 µM
[7] = The drug is tested on Odoribacter splanchnicus strain: fecal isolate for biotransformation. The drug concentrations were measured before and after a 12-h incubation by liquid-chromatography-coupled mass spectrometry (LC–MS); conditions: 2 µM
[8] = The drug is tested on Bacteroides sp. WH2 strain: WH2 for biotransformation. The drug concentrations were measured before and after a 12-h incubation by liquid-chromatography-coupled mass spectrometry (LC–MS); conditions: bacteroides sp. wh2, 12 h, 2 µM
[9] = roseburia intestinalis, 12 h, 2 µM
Description: The drug is tested on Roseburia intestinalis strain: L1-82 for biotransformation. The drug concentrations were measured before and after a 12-h incubation by liquid-chromatography-coupled mass spectrometry (LC–MS)

[10] = The drug is tested on Dorea formicigenerans strain: ATCC27755 for biotransformation. The drug concentrations were measured before and after a 12-h incubation by liquid-chromatography-coupled mass spectrometry (LC–MS); conditions: 2 µM
[11] = The drug is tested on Bacteroides fragilis strain: HMW610 for biotransformation. The drug concentrations were measured before and after a 12-h incubation by liquid-chromatography-coupled mass spectrometry (LC–MS); conditions: 2 µM
[12] = bacteroides eggerthii, 12 h, 2 µM
Description: The drug is tested on Bacteroides eggerthii strain: DSM20697 for biotransformation. The drug concentrations were measured before and after a 12-h incubation by liquid-chromatography-coupled mass spectrometry (LC–MS)

[13] = The drug is tested on Bacteroides coprophilus strain: DSM18228 for biotransformation. The drug concentrations were measured before and after a 12-h incubation by liquid-chromatography-coupled mass spectrometry (LC–MS); conditions: 2 µM
[14] = The drug is tested on Anaerococcus hydrogenalis strain: DSM7454 for biotransformation. The drug concentrations were measured before and after a 12-h incubation by liquid-chromatography-coupled mass spectrometry (LC–MS); conditions: 2 µM
[15] = bacteroides fragilis, 12 h, 2 µM; remark: listed apart in the source
Description: The drug is tested on Bacteroides fragilis strain: DS-208 for biotransformation. The drug concentrations were measured before and after a 12-h incubation by liquid-chromatography-coupled mass spectrometry (LC–MS)

[16] = The drug is tested on Clostridium asparagiforme strain: DSM15981 for biotransformation. The drug concentrations were measured before and after a 12-h incubation by liquid-chromatography-coupled mass spectrometry (LC–MS); assay type: ADME; set-up: dose 2 uM, timepoint 0 vs 12 hours; conditions: enterocloster asparagiformis, 2 µM
[17] = The drug is tested on Bacteroides finegoldii strain: DSM17565 for biotransformation. The drug concentrations were measured before and after a 12-h incubation by liquid-chromatography-coupled mass spectrometry (LC–MS); conditions: 2 µM
[18] = akkermansia muciniphila, 12 h, 2 µM
Description: The drug is tested on Akkermansia muciniphila strain: ATCC BAA-835 for biotransformation. The drug concentrations were measured before and after a 12-h incubation by liquid-chromatography-coupled mass spectrometry (LC–MS)

[19] = The drug is tested on Bacteroides ovatus strain: ATCC8483 for biotransformation. The drug concentrations were measured before and after a 12-h incubation by liquid-chromatography-coupled mass spectrometry (LC–MS); conditions: 2 µM
[20] = segatella copri, 12 h, 2 µM
Description: The drug is tested on Prevotella copri strain: DSM18205 for biotransformation. The drug concentrations were measured before and after a 12-h incubation by liquid-chromatography-coupled mass spectrometry (LC–MS)

| SMILES | Bacterial Biotransformation [1] | Bacterial Biotransformation [2] | Bacterial Biotransformation [3] | Bacterial Biotransformation [4] | Bacterial Biotransformation [5] | Bacterial Biotransformation [6] | Bacterial Biotransformation [7] | Bacterial Biotransformation [8] | Bacterial Biotransformation [9] | Bacterial Biotransformation [10] | Bacterial Biotransformation [11] | Bacterial Biotransformation [12] | Bacterial Biotransformation [13] | Bacterial Biotransformation [14] | Bacterial Biotransformation [15] | Bacterial Biotransformation [16] | Bacterial Biotransformation [17] | Bacterial Biotransformation [18] | Bacterial Biotransformation [19] | Bacterial Biotransformation [20] |
| --- | --- | --- | --- | --- | --- | --- | --- | --- | --- | --- | --- | --- | --- | --- | --- | --- | --- | --- | --- | --- |
| COc1ccccc1N1CCN(CC(O)COc2cccc3ccccc23)CC1 (stereo not given) [NAFTOPIDIL] | Compound NOT metabolized | Compound NOT metabolized | Compound NOT metabolized | Compound NOT metabolized | Compound NOT metabolized | Compound NOT metabolized | Compound NOT metabolized | Compound NOT metabolized | Compound NOT metabolized | Compound NOT metabolized | Compound metabolized | Compound NOT metabolized | Compound NOT metabolized | Compound NOT metabolized | Compound NOT metabolized | Compound NOT metabolized | Compound NOT metabolized | Compound NOT metabolized | Compound NOT metabolized | Compound NOT metabolized |
| C=CCN1CC[C@]23c4c5ccc(O)c4O[C@H]2C(=O)CC[C@@]3(O)[C@H]1C5 [NALOXONE] | Compound metabolized | Compound metabolized | Compound NOT metabolized | Compound metabolized | Compound metabolized | Compound metabolized | Compound NOT metabolized | Compound NOT metabolized | Compound metabolized | Compound NOT metabolized | Compound metabolized | Compound metabolized | Compound metabolized | Compound NOT metabolized | Compound metabolized | Compound NOT metabolized | Compound NOT metabolized | Compound metabolized | Compound metabolized | Compound metabolized |
